In patent EP4800018A1, “PAN-KRAS INHIBITOR AND USE THEREOF IN MEDICINES” (Betta Pharmaceuticals Co., Ltd., priority 2023, dated 2025):
Where two headings read alike, the source gives them in different places.

Experiments:
Type in all cases: cell-based
[1] = test system: KRAS-G12D mutant tumor cells AGS; assay: Cell Proliferation Inhibition Assay (AGS), Cell-titer GLO, 96 h; conditions: read-out: AGS(G12D)
Outline: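 Inhibition % was derived from CellTiter-Glo luminescence (max minus measured, over max minus blank) and fitted to give IC50. Cells were KRAS-G12D AGS in low-attachment wells, treated for 96 h at 37°C.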

[2] = test system: KRAS-G12V mutant tumor cells SW620; assay: Cell Proliferation Inhibition Assay (SW620), Cell-titer GLO, 96 h; conditions: read-out: SW620(G12V)
Outline: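 Readout: Cell-titer GLO luminescence after 96 h at 37°C, converted to percent inhibition against 0.5% DMSO and blank controls, with IC50 from curve fit. Low-attachment SW620 cultures (1×10^3 cells/well) were dosed at 10000–0.03 nM final.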

[3] = molecular target: T1, KRAS G12D-cRAF (Homo sapiens, UniProt P01116, G12D); assay: Cellular KRAS G12D-cRAF Binding Inhibition Assay (NanoBRET, AD293 stable cells)
T1 construct: expressed in transfected cells
T1 sequence (P01116 1-188 isoform P01116-2 G12D): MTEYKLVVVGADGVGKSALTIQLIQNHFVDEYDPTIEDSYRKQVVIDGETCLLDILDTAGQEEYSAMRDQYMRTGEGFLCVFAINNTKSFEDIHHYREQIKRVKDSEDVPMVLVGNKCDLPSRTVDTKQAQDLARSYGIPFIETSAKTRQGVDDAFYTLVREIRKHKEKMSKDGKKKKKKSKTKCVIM
Outline: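 IC50 values derive from fitted % inhibition, normalised to maximum signal and medium-only blank. The read-out is NanoBRET between KRAS G12D-NanoLuc (donor) and cRAF RBD-HaloTag labelled with the 618 ligand (acceptor), in live stably transfected AD293 cells at 1×10^4/well.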

[4] = molecular target: T2, KRAS G12V-cRAF (Homo sapiens, UniProt P01116, G12V); assay: Cellular KRAS G12V-cRAF Binding Inhibition Assay (NanoBRET, AD293 stable cells)
T2 construct: expressed in transfected cells
T2 sequence (P01116 1-188 isoform P01116-2 G12V): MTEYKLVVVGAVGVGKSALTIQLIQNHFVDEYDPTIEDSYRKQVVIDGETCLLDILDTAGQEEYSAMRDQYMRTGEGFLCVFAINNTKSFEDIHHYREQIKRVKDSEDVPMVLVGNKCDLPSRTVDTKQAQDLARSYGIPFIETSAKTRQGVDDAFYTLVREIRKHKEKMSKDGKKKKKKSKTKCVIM
Outline: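 Binding measured as BRET between NanoLuc and HaloTag-bound NanoBRET 618 ligand (added overnight) in stably expressing AD293 cells. Signals were converted to percent inhibition against max and blank wells and fitted for IC50.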

[5] = Homo sapiens, AGS, 96 h, AGS cells, 96 h incubation, Cell-titer GLO
[6] = Homo sapiens, SW-620, 96 h, SW620 cells, 96 h incubation, Cell-titer GLO
[7] = 3 h incubation, read-out: NanoBRET KRAS G12D
[8] = 3 h incubation, read-out: NanoBRET KRAS G12V

## CC1OCCCn2c(c3c4cc(ccc42)-c2csc(n2)CC(NC(=O)C2CC2C)C(=O)N2CCCC(N2)C(=O)OCC(C)(C)C3)-c2cc(N3CCOCC3)cnc21 [Example 118, (1S,2S)-2-methyl-N-((1^5S,6^3S,4S,Z)-1^5,10,10-trimethyl-1^2-morpholino-5,7-dioxo-1^8,1^9,6^1,6^2,6^3,6 ^4,6^5,6^6-octahydro-1^5H,1^7H-8-oxa-1(13,15)-pyrido[3',2':7,8][1,5]oxazonino[5,6-a]indola-2(4,2)-thiazola-6(1,3)-pyridazinacycloundecaphane-4-yl)cyclopropane-1-carboxamide]
[1]; [5]
  IC50: 3.77 nM
[2]; [6]
  IC50: 1.5 nM
[3]; [7]
  IC50: 7.2 nM
[4]; [8]
  IC50: 30.6 nM

## CC1CN(c2cnc3c(c2)-c2c4c5cc(ccc5n2CCCOC3C)-c2csc(n2)CC(NC(=O)C2CC2C(F)F)C(=O)N2CCCC(N2)C(=O)OCC(C)(C)C4)CC(C)O1 [Example 131, (1S,2S)-2-(difluoromethyl)-N-((1^5S,6^3S,4S,Z)-1^2-((2S,6S)-2,6-dimethylmorpholino)-1^5,10,10-trimethyl-5,7-dioxo-1^8,1^9,6^1,6^2,6^3,6^4,6^5,6^6-octahydro-1^5H,1^7H-8-oxa-1(13,15)-pyrido[3',2':7,8][1,5]oxazonino[5,6-a]indola-2(4,2)-thiazola-6(1,3)-pyridazinacycloundecaphane-4-yl)cyclopropane-1-carboxamide]
[1]; AGS cells, 96 h incubation, Cell-titer GLO
  IC50: 1.31 nM
[2]; SW620 cells, 96 h incubation, Cell-titer GLO
  IC50: 0.51 nM
[3]; [7]
  IC50: 2.57 nM
[4]; [8]
  IC50: 11 nM

## CC1OCCCn2c(c3c4cc(ccc42)-c2csc(n2)CC(NC(=O)C2CC2C(F)F)C(=O)N2CCCC(N2)C(=O)OCC(C)(C)C3)-c2cc(N3CCC(N(C)C)CC3)cnc21 [Example 105, (1S,2S)-2-(difluoromethyl)-N-((1^5S,6^3S,4S,Z)-1^2-(4-(dimethylamino)piperidin-1-yl)-1^5,10,10-trimethyl-5,7-dioxo-1^8,1^9,6^1,6^2,6^3,6^4,6^5,6^6-octahydro-1^5H,1^7H-8-oxa-1(13,15)-pyrido[3',2':7,8][1,5]oxazonino[5,6-a]indola-2(4,2)-thiazola-6(1,3)-pyridazinacycloundecaphane-4-yl)cyclopropane-1-carboxamide]
[1]; [5]
  IC50: 0.69 nM
[2]; [6]
  IC50: 0.24 nM
[3]; [7]
  IC50: 4.55 nM
[4]; [8]
  IC50: 16.6 nM

## CC1OCCCn2c(c3c4cc(ccc42)-c2csc(n2)CC(NC(=O)C24CC(C)(C2)C4)C(=O)N2CCCC(N2)C(=O)OCC(C)(C)C3)-c2cc(N3CCN(CC(F)(F)F)CC3)cnc21 [Example 39, 3-methyl-N-((1^5S,6^3S,4S,Z)-1^5,10,10-trimethyl-5,7-dioxo-1^2-(4-(2,2,2-trifluoroethyl)piperazin-1-yl)-1^8,1^9,6^1,6^2,6^3,6^4,6^5,6^6-octahydro-1^5H,1^7H-8-oxa-1(13,15)-pyrido[3',2':7,8][1,5]oxazonino[5,6-a]indola-2(4,2)-thiazola-6(1,3)-pyridazinacycloundecaphane-4-yl)bicyclo[1.1.1]pentane-1-carbo xamide]
[1]; [5]
  IC50: 33.7 nM
[2]; [6]
  IC50: 8.17 nM
[3]; [7]
  IC50: 22.1 nM
[4]; [8]
  IC50: 86.4 nM

## CCN1CCN(c2cnc3c(c2)-c2c4c5cc(ccc5n2CCCOC3C)-c2csc(n2)CC(NC(=O)C(C(C)C)N(C)C(=O)N2CCOCC2)C(=O)N2CCCC(N2)C(=O)OCC(C)(C)C4)CC1 [Example 149, N-((2S)-1-(((1^5S,6^3S,4S,Z)-1^2-(4-ethylpiperazin-1-yl)-1^5,10,10-trimethyl-5,7-dioxo-1^8,1^9,6^1,6^2,6^3 ,6^4,6^5,6^6-octahydro-1^5H,1^7H-8-oxa-1(13,15)-pyrido[3',2':7,8][1,5]oxazonino[5,6-a]indola-2(4,2)-thiazola-6(1,3)-pyridazinacycloundecaphane-4-yl)amino)-3-methyl-1-oxobutan-2-yl)-N-methyl morpholine-4-carboxamide]
[1]; [5]
  IC50: 3.19 nM
[2]; [6]
  IC50: 1.09 nM
[3]; [7]
  IC50: 3.48 nM
[4]; [8]
  IC50: 10.9 nM

## CC1OCCCn2c(c3c4cc(ccc42)-c2csc(n2)CC(NC(=O)C2CC2C(F)F)C(=O)N2CCCC(N2)C(=O)OCC(C)(C)C3)-c2cc(N3CCN(C4CC4)CC3)cnc21 [Example 85, (1S,2S)-N-((1^5S,6^3S,4S,Z)-1^2-(4-cyclopropylpiperazin-1-yl)-15,10,10-trimethyl-5,7-dioxo-1^8,1^9,6 ,6^2,6^3,6^4,6^5,6^6-octahydro-1^5H,1^7H-8-oxa-1(13,15)-pyrido[3',2':7,8][1,5]oxazonino[5,6-a]indola-2(4,2)-thiazola-6(1,3)-pyridazinacycloundecaphane-4-yl)-2-(difluoromethyl)cyclopropane-1-car boxamide]
[1]; [5]
  IC50: 3.72 nM
[2]; [6]
  IC50: 0.63 nM
[3]; [7]
  IC50: 5.56 nM
[4]; [8]
  IC50: 19.9 nM

## CC1OCCCn2c(c3c4cc(ccc42)-c2csc(n2)CC(NC(=O)C2CC2C(F)F)C(=O)N2CCCC(N2)C(=O)OCC(C)(C)C3)-c2cc(N3CCS(=O)(=O)CC3)cnc21 [Example 133, (1S,2S)-2-(difluoromethyl)-N-((1^5S,6^3S,4S,Z)-1^2-(1,1-dioxidothiomorpholino)-1^5,10,10-trimethy 1-5,7-dioxo-1^8,1^9,6^1,6,^26^3,6^4,6^5,6^6-octahydro-1^5H,1^7H-8-oxa-1(13,15)-pyrido[3',2':7,8][1,5]oxazonino[5,6-alindola-2(4,2)-thiazola-6(1,3)-pyridazinacycloundecaphane-4-yl)cyclopropane-1-carboxamide]
[1]; [5]
  IC50: 1.25 nM
[2]; [6]
  IC50: 0.79 nM
[3]; [7]
  IC50: 9.2 nM
[4]; [8]
  IC50: 40.9 nM

## COCCN1CCN(c2cnc3c(c2)-c2c4c5cc(ccc5n2CCCOC3C)-c2csc(n2)CC(NC(=O)C23CC(C)(C2)C3)C(=O)N2CCCC(N2)C(=O)OCC(C)(C)C4)CC1 [Example 38, N-((1^5S,6^3S,4S,Z)-1^2-(4-(2-methoxyethyl)piperazin-1-yl)-1^5,10,10-trimethyl-5,7-dioxo-1^8,1^9,6^1,6 ^2,6^3,6^4,6^5,6^6-octahydro-1^5H,1^7H-8-oxa-1(13,15)-pyrido[3',2':7,8][1,5]oxazonino[5,6-a]indola-2(4 ,2)-thiazola-6(1,3)-pyridazinacycloundecaphane-4-yl)-3-methylbicyclo[1.1.1]pentane-1-carboxamide]
[1]; [5]
  IC50: 4.2 nM
[2]; [6]
  IC50: 1.72 nM
[3]; [7]
  IC50: 8.6 nM
[4]; [8]
  IC50: 31.9 nM

## C[C@@H]1OCCCn2c(c3c4cc(ccc42)-c2csc(n2)C[C@H](NC(=O)[C@H]2C[C@@H]2C(F)F)C(=O)N2CCC[C@H](N2)C(=O)OCC(C)(C)C3)-c2cc(N3CC4(CCN(C)CC4)C3)cnc21 [Example 100, (1S,2S)-2-(difluoromethyl)-N-((1^5S,6^3S,4S,Z)-1^5,10,10-trimethyl-1^2-(7-methyl-2,7-diazaspiro[3. 5]nonan-2-yl)-5,7-dioxo-1^8,1^9,6^1,6^2,6^3,6^4,6^5,6^6-octahydro-1^5H,1^7H-8-oxa-1(13,15)-pyrido[3',2':7, 8][1,5]oxazonino[5,6-a]indola-2(4,2)-thiazola-6(1,3)-pyridazinacycloundecaphane-4-yl)cyclopro pane-1-carboxamide]
[1]; Homo sapiens, AGS, 96 h
  IC50: 0.44 nM
[2]; Homo sapiens, SW-620, 96 h
  IC50: 0.1 nM
[3]; read-out: NanoBRET KRAS G12D, 3 h incubation
  IC50: 4.55 nM
[4]; read-out: NanoBRET KRAS G12V, 3 h incubation
  IC50: 21.7 nM

## CC1OCCCn2c(c3c4cc(ccc42)-c2csc(n2)CC(NC(=O)C2CC2C(F)F)C(=O)N2CCCC(N2)C(=O)OCC(C)(C)C3)-c2cc(OC3CCN(C)CC3)cnc21 [Example 97, (1S,2S)-2-(difluoromethyl)-N-((1^5S,6^3S,4S,Z)-1^5,10,10-trimethyl-1^2-((1-methylpiperidin-4-yl)oxy)-5,7-dioxo-1^8,1^9,6^1,6^2,6^3,6^4,6^5,6^6-octahydro-1^5H,1^7H-8-oxa-1(13,15)-pyrido[3',2':7,8][1,5]oxazonino[5,6-a]indola-2(4,2)-thiazola-6(1,3)-pyridazinacycloundecaphane-4-yl)cyclopropane-1-carb oxamide]
[1]; [5]
  IC50: 2.69 nM
[2]; [6]
  IC50: 0.42 nM
[3]; [7]
  IC50: 11.9 nM
[4]; [8]
  IC50: 61.8 nM

## CC1OCCCn2c(c3c4cc(ccc42)-c2csc(n2)CC(NC(=O)C2CC2C(F)F)C(=O)N2CCCC(N2)C(=O)OCC(C)(C)C3)-c2cc(N3CC(N4CCN(C)CC4)C3)cnc21 [Example 99, (1S,2S)-2-(difluoromethyl)-N-((1^5S,6^3S,4S,Z)-1^5,10,10-trimethyl-1^2-(3-(4-methylpiperazin-1-yl)azetidin-1-yl)-5,7-dioxo-1^8,1^9,6^1,6^2,6^3,6^4,6^5,6^6-octahydro-1^5H,1^7H-8-oxa-1(13,15)-pyrido[3',2':7, 8][1,5]oxazonino[5,6-a]indola-2(4,2)-thiazola-6(1,3)-pyridazinacycloundecaphane-4-yl)cyclopro pane-1-carboxamide]
[1]; Homo sapiens, AGS, 96 h
  IC50: 0.74 nM
[2]; Homo sapiens, SW-620, 96 h
  IC50: 0.14 nM
[3]; [7]
  IC50: 4.25 nM
[4]; [8]
  IC50: 13.3 nM
